The NIST ThermoML archive (doi:10.1016/j.tca.2013.10.024)
Several values for one entry are separate records, joined by “and”; a condition that tells them apart may be missing. Equal values may be shown once.

Details: Crystal, Calculated from knudsen effusion weight loss

O=S(=O)([O-])[O-].[K+].[K+] [potassium sulfate]
Details	vapor or sublimation pressure
1193 K	2.255e-05 kPa
1201 K	4.069e-05 kPa
1202 K	3.268e-05 kPa
1207 K	5.831e-05 kPa
1212 K	4.467e-05 kPa
1214 K	4.592e-05 kPa and 5.841e-05 kPa
1218 K	4.274e-05 kPa
1221 K	7.584e-05 kPa
1223 K	9.497e-05 kPa
1224 K	6.12e-05 kPa
1225 K	5.984e-05 kPa
1226 K	7.236e-05 kPa
1227 K	0.0001197 kPa
1228 K	0.0001335 kPa and 9.75e-05 kPa
1233 K	6.173e-05 kPa
1235 K	6.966e-05 kPa and 0.0001125 kPa
1238 K	0.000154 kPa and 7.448e-05 kPa
1239 K	0.000181 kPa and 0.0001288 kPa
1240 K	9.576e-05 kPa
1241 K	0.0001668 kPa
1243 K	0.0002943 kPa and 0.0001001 kPa
1244 K	0.000186 kPa [middle of 4 runs]
1245 K	0.0001671 kPa
1246 K	0.0001915 kPa and 0.0001729 kPa
1247 K	0.0002093 kPa
1248 K	0.0002174 kPa and 0.0001453 kPa
1253 K	0.0001091 kPa
1254 K	0.0001949 kPa
1255 K	0.0002829 kPa and 0.0001188 kPa
1258 K	0.000281 kPa and 0.0003264 kPa
1259 K	0.0001516 kPa and 0.0002187 kPa and 0.0003679 kPa
1260 K	0.0001623 kPa and 0.0004471 kPa
1263 K	0.0002656 kPa
1264 K	0.0005652 kPa and 0.0002789 kPa
1265 K	0.0003443 kPa and 0.0002937 kPa
1267 K	0.0005201 kPa and 0.0003602 kPa
1268 K	0.0003503 kPa [middle of 4 runs]
1269 K	0.0001536 kPa
1271 K	0.0003904 kPa
1272 K	0.0005138 kPa and 0.0005765 kPa and 0.0003016 kPa
1273 K	0.0001617 kPa and 0.0001919 kPa
1275 K	0.0006554 kPa
